Test results published in patent US20230310634A1, “ANTI-HUMAN VISTA ANTIBODIES AND USE THEREOF” (IMMUNEXT, INC., priority 2020, published 2023).
Entries after “also recorded” stand apart in the source; their conditions may differ.

Tests used:
FKBP5 [1] = assay: FKBP5 transcription in peritoneal resident macrophages and spleen monocytes after in vivo treatment; design: species or system mice; conditions: from other studies (previous example)
Protocol: ADCs were then injected from 17 h to 7 days before mouse euthanasia and cell isolation.
After euthanasia, mice were injected in the peritoneal cavity with 7 ml of PBS/0.5% BSA/2 mM EDTA. After a brief massage of the peritoneum, a small incision was performed and the peritoneal lavage collected. PRM were isolated using negative selection (Miltenyi kit, ref 130-110-434). Spleen were dissected and dissociated mechanically; monocytes were isolated using […] (Stem Cell, EasySep™ Mouse CD11 b Positive Selection Kit II).
Cell pellets from different tissues were resuspended in 0.4 ml RNeasy lysis buffer from RNeasy Plus Mini kit (Qiagen, PN: 74136) and homogenize with 20G needle for 5 times. RNA was isolated following manufacturer's instructions and RNA eluted in […] H2O (RNase/DNase free). RNA concentration was assessed on Nanodrop.
Reverse transcription was done using Taqman reverse transcription reagents (#N8080234) and following manufacturer's instructions. Quantitative Real-Time PCR was done using Taqman master mix 2× kit (#4369016) and Taqman primers for mouse FKBP5 (Mm00487401_m1), and mouse HPRT as housekeeping gene (Mm446968_m1) and run on a QuantStudio3 from Applied Biosystem. […]

[2] = Plasma corticosterone levels after repeated treatment; type: in vivo, mice; conditions: bleed on day 5
Protocol: Based on the foregoing we assessed the impact of long-term treatment with an exemplary antibody drug conjugate (ADC) INX201J, and an anti-human VISTA monoclonal antibody linked to a glucocorticoid (GC) payload, on the HPA axis, specifically the corticosterone basal levels. […] The experiment was performed in female mice that were first acclimated for a week to a specific handler that would carry subsequently all injections and bleed to limit stress-induced changes in basal level of GC.
On day 5, mice were bled and their corticosterone levels assessed by ELISA.
The experiment was performed in female hVISTA KI mice. […] A control group was included that received daily PBS injections. On day 5, mice were bled and their plasma corticosterone levels assessed by ELISA.
The ELISA was conducted following the manufacturer's included protocol using Arbor Assays (cat #K014-H5) Corticosterone 5 pack ELISA Kit.

FKBP5 [3] = assay: FKBP5 transcriptional activation in isolated human Tregs (qRT-PCR); type: cell-based; conditions: Experiment 3; 20 nM payload or molar equivalent; 2 donors
Description: (§1) To monitor/confirm GC delivery and activity, we measured by quantitative Real Time PCR (qRT-PCR) the transcriptional activation of FKBP5 that is a direct and robust biomarker of glucocorticoid activity (JCEM 101: 4305-4312, 2016). We conducted this assessment on isolated human monocytes, regulatory T cells (T regs) and B cells following in vitro treatment with ADCs.
For monocytes vs B cell analyses, one blood donor collection was used for the single drug concentration experiment; blood from a separate single donor collection was used to assess drug dose response. For the regulatory T cell (Treg) analysis, blood from two separate donors was used.
(§2) The various immune populations were isolated using different cell isolation kits and following manufacturer instructions: • EasySep Human monocyte enrichment kit without CD16 depletion (StemCell cat #19058) • Pan B cell isolation kit, human (Miltenyi Biotec, 130-101-638) • EasySep™ Human CD4^+ CD127 low CD49d− regulatory T cell enrichment Kit (StemCell cat #19232) […]
(§3) After one wash with PBS, RNA was isolated from cell pellets using either the RNeasy Plus Mini kit (Qiagen, PN: 74136) or NucleoSpin RNA Plus (Macherey-Nagel #740984.250). […] RNA concentration was assessed by UV spectroscopy using a Nanodrop 2000. […]
(§4) Quantitative Real-Time PCR was done using Taqman master mix 2× kit (#4369016) and run on a QuantStudio3 from Applied Biosystem. […]

[4] = test system: LPS stimulated human PBMCs; assay: In vitro potency of steroid payloads in LPS stimulated human PBMCs (IL-1β, IL-6 ELISA); type: cell-based
FKBP5 [5] = assay: FKBP5 transcriptional activation in isolated human monocytes (qRT-PCR); type: cell-based; conditions: Experiment 1; 20 nM payload or molar equivalent; 1 day; relative to no-treatment control
Description: as §1
(§5) Monocytes or B cells were isolated from healthy donor blood samples and treated with free steroid, anti-VISTA conjugated steroid, or conjugated isotype control. RNA was isolated, and change in FKBP5 transcript level assessed by qPCR.
as §2, §3, §4

FKBP5 [6] = assay: FKBP5 transcriptional activation in isolated human B cells (qRT-PCR); type: cell-based; conditions: Experiment 1; 20 nM payload or molar equivalent; 1 day; relative to no-treatment control
Description: as §1, §5, §2, §3, §4

[7] = mouse, in vivo; cited from earlier work

## C[C@@H]1C[C@H]2[C@@H]3CCC4=CC(=O)C=C[C@]4(C)[C@@]3(F)[C@@H](O)C[C@]2(C)[C@@]1(O)C(=O)CO [Dex, Dexamethasone]
FKBP5 [1]
  pharmacodynamic range: < 24 h
[2]; Dex 0.2 mg/Kg daily for 4 days
  basal plasma corticosterone levels: limited though significant impact
[2]; Dex 2 mg/Kg daily for 4 days
  basal plasma corticosterone levels: dramatically decreased

## C[C@]12C=CC(=O)C=C1CC[C@@H]1[C@@H]2[C@@H](O)C[C@@]2(C)[C@H]1C[C@H]1O[C@@H](c3ccc(CC45CC(N)(C4)C5)cc3)O[C@]12C(=O)CO [INX-SM-3, (6aR,6bS,7S,8aS,8bS,10R,11aR,12aS,12bS)-10-(4-((3-aminobicyclo[1.1.1]pentan-1-yl)methyl)phenyl)-7-hydroxy-8b-(2-hydroxyacetyl)-6a,8a-dimethyl-1,2,6a,6b,7,8,8a,8b,11a,12,12a,12b-dodecahydro-4H-naphtho[2′,1′:4,5]indeno[1,2-d][1,3]dioxol-4-one]
FKBP5 [3]
  FKBP5 transcription in Tregs: increased FKBP5 transcription
[4]
  steroid potency as free payloads in LPS-activated human PBMCS (conclusions): varying degrees of dose dependent steroid potency
[4]; 1 ng/mL LPS, 24 hr
  potency relative to the other compounds of the experiment: most potent compound among these three; also recorded: most potent compound among these compounds tested
[4]; Experiment 1, 1000-1 nM, 1 ng/mL LPS, 24 hr, n=1 donor
  IL-1β and IL-6 production: inhibit both IL-1β and IL-6 production
[4]; Experiment 2, 1000-1 nM, 1 ng/mL LPS, 24 hr, n=1 donor
  IL-1β production: show inhibition in IL-1β production

## C[C@]12C=CC(=O)C=C1CC[C@@H]1[C@@H]2[C@@H](O)C[C@@]2(C)[C@H]1C[C@H]1O[C@@H](c3ccc(Cc4cccc(N)c4)cc3)O[C@]12C(=O)CO [free J payload]
FKBP5 [5]
  FKBP5 transcription in monocytes: robust increase in FKBP5 transcription
FKBP5 [6]
  FKBP5 transcription in B cells: robust increase in FKBP5 transcription

## C[C@@H]1C[C@H]2[C@@H]3CCC4=CC(=O)C=C[C@]4(C)[C@@]3(F)[C@@H](O)C[C@]2(C)[C@@]1(O)C(=O)CO [dexamethasone]
[7]
  toxicity in this IBD model (literature): causes toxicity in this IBD model
